≈ marks a conversion by molar mass, not a printed value. Results filed as inconclusive are left out. Calls of active or inactive are those of the source.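 Rule for the calls: active = a dose response whose lowest growth-blocking dose, signal 3 SD under solvent wells, sits below the top dose; inconclusive = compound fluoresces without dose trend, or replicates split around top dose; inactive = no growth loss up to the top dose.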
What follows are compounds tested on S. cerevisiae SKY197-pL101 growth, alamar blue fluorescence, 9 h (assay: yeast viability loss, SKY197-pL101 strain – Alamar Blue fluorescence, MIC, counter-screen for polyadenylation inhibitor project, dose response (AID 2693)).
For `Cc1ccc(Nc2c(-c3ccc(C)o3)nc3ncccn23)cc1`, the MIC was > 50 µM (inactive). With `O=C(COC(=O)Cc1ccc(S(=O)(=O)N2CCOCC2)s1)NCc1ccc(Cl)cc1` the MIC was > 50 µM (inactive). `Nc1ncnc2c1ncn2C1OC(CO)CC1O` (stereo unspecified) was tested, and the MIC was > 50 µM (inactive). `COc1cc(/C=C2/SC(=S)N(Cc3ccccc3)C2=O)cc(OC)c1O` was tested, and the MIC was > 50 µM (inactive). For `CC(=O)c1ccc(Sc2ccccc2)c([N+](=O)[O-])c1`, the MIC was > 50 µM (inactive). With `COc1cc(/C=C2/CC/C(=C/c3ccc(O)c(OC)c3)C2=O)ccc1O` the MIC was > 50 µM (inactive). `Cc1ccc(-c2nn3c(C)nnc3s2)cc1NC(=O)CSc1ccc(Cl)cc1` was tested, and the MIC was > 50 µM (inactive). In the case of `Cc1ccc2nc(/C(C#N)=C/c3ccc([N+](=O)[O-])o3)[nH]c2c1`, the MIC was 2.3 µM (≈ 0.677 µg/mL). `COc1cc(/C=C2\SC(=S)N(NC(=O)c3ccncc3)C2=O)ccc1O` showed an MIC of 25 µM (≈ 9.69 µg/mL). `N#CC1(C#N)C2=C(CCCC2)NC(c2ccccc2)C1(C#N)C#N` (stereo unspecified) showed an MIC of 50 µM (≈ 15.7 µg/mL). `CCN1/C(=C\C=C\c2sc3ccccc3[n+]2CC)Sc2ccccc21` showed an MIC of 4.8 µM. `Cc1ccc(C(=O)c2no[n+]([O-])c2C(=O)c2ccc(C)cc2)cc1` showed an MIC of 3.1 µM (≈ 0.999 µg/mL). In the case of `N#C/C(=C/c1ccc([N+](=O)[O-])o1)c1nc2ccccc2[nH]1`, the MIC was 2.3 µM (≈ 0.645 µg/mL). For `O=C(O)CN1C(=O)/C(=C\c2ccc(N3CCCCC3)o2)SC1=S`, the MIC was 37 µM (≈ 13 µg/mL). For `O=C(Oc1c(-c2ccccc2)c(=O)n2c3c(cccc13)CC2)c1cccc([N+](=O)[O-])c1`, the MIC was > 50 µM (inactive). In the case of `CCOc1cc(/C=C2\N=C(SC(C)C(N)=O)N(c3ccc(OC(F)F)cc3)C2=O)ccc1O` (stereo unspecified), the MIC was > 50 µM (inactive).

Source: PubChem BioAssay AID2693 (Broad Institute, 2010)
